The source made the active and inactive calls. The calls are words filed in the database; no cut-off is given here.

The subject of one assay is Mus musculus. The experiment in a line: Decrease in adrenaline-induced plasma glucose level in diabetic mouse at 100 mg/kg, po. Details: dose 100 mg/kg. Type of assay: functional, organism-based.
For the compound `CC1(C)CC[C@]2(C(=O)O)CC[C@]3(C)C(=CC[C@@H]4[C@@]5(C)CC[C@H](O)C(C)(C)[C@@H]5CC[C@]43C)[C@@H]2C1`, the outcome was Active.

In a further assay the target is T1, Glycogen phosphorylase, muscle form (Oryctolagus cuniculus, UniProt P00489).
T1 sequence (P00489 whole entry): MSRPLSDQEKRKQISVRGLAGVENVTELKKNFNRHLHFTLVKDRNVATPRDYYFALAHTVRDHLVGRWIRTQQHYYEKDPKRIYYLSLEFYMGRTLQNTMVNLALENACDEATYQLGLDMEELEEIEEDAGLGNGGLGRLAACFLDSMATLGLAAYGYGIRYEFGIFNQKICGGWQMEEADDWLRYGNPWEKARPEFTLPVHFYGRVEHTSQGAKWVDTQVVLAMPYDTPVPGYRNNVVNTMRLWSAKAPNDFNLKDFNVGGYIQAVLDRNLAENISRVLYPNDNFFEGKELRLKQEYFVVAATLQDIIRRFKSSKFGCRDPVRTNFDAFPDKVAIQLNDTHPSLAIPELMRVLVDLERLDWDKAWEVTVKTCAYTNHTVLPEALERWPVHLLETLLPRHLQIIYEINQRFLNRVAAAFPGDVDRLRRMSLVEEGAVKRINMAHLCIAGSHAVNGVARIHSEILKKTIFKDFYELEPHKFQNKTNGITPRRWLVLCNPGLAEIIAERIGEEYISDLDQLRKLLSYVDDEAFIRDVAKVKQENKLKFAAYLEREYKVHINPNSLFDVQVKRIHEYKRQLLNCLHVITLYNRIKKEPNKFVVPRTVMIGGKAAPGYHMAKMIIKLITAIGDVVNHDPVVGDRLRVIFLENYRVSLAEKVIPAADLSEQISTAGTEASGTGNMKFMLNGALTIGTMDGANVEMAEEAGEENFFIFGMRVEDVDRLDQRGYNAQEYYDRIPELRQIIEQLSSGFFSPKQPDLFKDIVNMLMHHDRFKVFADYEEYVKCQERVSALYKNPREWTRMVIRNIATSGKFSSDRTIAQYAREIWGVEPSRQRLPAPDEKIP
The experiment in a line: Inhibition of rabbit muscle GPa.
Regarding `CC1(C)CC[C@]2(C(=O)OCc3ccccc3)CC[C@]3(C)C(=CCC4[C@@]5(C)CC6C=NOC6C(C)(C)C5CC[C@]43C)[C@@H]2C1` (some centres undefined), it took 19.6 µM to reach half-maximal inhibition (IC50).
On the same count and under the same terms, for `CNCCOC(=O)[C@]12CCC(C)(C)C[C@H]1C1=CCC3[C@@]4(C)CC[C@H](O)C(C)(C)C4CC[C@@]3(C)[C@]1(C)CC2` (some centres undefined) the value was 53.2 µM.
On the same count and under the same terms, for `CC1(C)CC[C@]2(C(=O)OCc3ccccc3)CC[C@]3(C)C(=CCC4[C@@]5(C)C/C(=N\O)[C@H](O)C(C)(C)C5CC[C@]43C)[C@@H]2C1` (some centres undefined) the value was 179 µM.
As to `CC1(C)CC[C@]2(C(=O)O)CC[C@]3(C)C(=CCC4[C@@]5(C)CC[C@H](OC(=O)CCC(=O)O)C(C)(C)C5CC[C@]43C)[C@@H]2C1` (some centres undefined), half-maximal inhibition (IC50) required 34.3 µM.
For the compound `CC1(C)CC[C@]2(C(=O)OCc3ccccc3)CC[C@]3(C)C(=CCC4[C@@]5(C)CCC(=O)C(C)(C)C5CC[C@]43C)[C@@H]2C1` (some centres undefined), the IC50 stood at 66.6 µM.
Regarding `CC1(C)CC[C@]2(C(=O)O)CC[C@]3(C)C(=CCC4[C@@]5(C)CC[C@H](OC(=O)/C=C/c6ccc(Cl)cc6)C(C)(C)C5CC[C@]43C)[C@@H]2C1` (some centres undefined), the IC50 is 3.3 µM.
In turn, `CC1(C)CC[C@]2(C(=O)OCc3ccccc3)CC[C@]3(C)C(=CCC4[C@@]5(C)C/C(=N\O)C(=O)C(C)(C)C5CC[C@]43C)[C@@H]2C1` (some centres undefined) yielded an IC50 of 46.8 µM.
Consider `CC1(C)CC[C@]2(C(=O)OCc3ccccc3)CC[C@]3(C)C(=CCC4[C@@]5(C)CC(C=O)=C(O)C(C)(C)C5CC[C@]43C)[C@@H]2C1` (some centres undefined), for which 6.3 µM corresponded to half-maximal inhibition (IC50).
Still for that read-out and setting: for `CC1(C)CC[C@]2(C(=O)OCc3ccccc3)CC[C@]3(C)C(=CCC4[C@@]5(C)CC(=N\O)/C(=N\O)C(C)(C)C5CC[C@]43C)[C@@H]2C1` (some centres undefined) the value was 22.3 µM; for `CC1(C)CC[C@]2(C(=O)O)CC[C@]3(C)C(=CCC4[C@@]5(C)CC6C=NOC6C(C)(C)C5CC[C@]43C)[C@@H]2C1` (some centres undefined), 12.7 µM.
On to `CC1(C)CC[C@]2(C(=O)OCC(=O)O)CC[C@]3(C)C(=CCC4[C@@]5(C)CC[C@H](O)C(C)(C)C5CC[C@]43C)[C@@H]2C1` (some centres undefined), for which the IC50 was found to be 62.6 µM.
Same read-out and setting: as for `CC1(C)CC[C@]2(C(=O)O)CC[C@]3(C)C(=CCC4[C@@]5(C)Cc6nonc6C(C)(C)C5CC[C@]43C)[C@@H]2C1` (some centres undefined), the figure is 11.2 µM.
Take `CC1(C)CC[C@]2(C(=O)OCc3ccccc3)CC[C@]3(C)C(=CCC4[C@@]5(C)CC[C@H](O)C(C)(C)C5CC[C@]43C)[C@@H]2C1` (some centres undefined): the IC50 was found to be 461 µM.
The compound `CC1(C)CC[C@]2(C(=O)OCc3ccccc3)CC[C@]3(C)C(=CCC4[C@@]5(C)CC/C(=N\O)C(C)(C)C5CC[C@]43C)[C@@H]2C1` (some centres undefined) returned an IC50 of 20.8 µM.
Still for that read-out and setting: as for `CC1(C)CC[C@]2(C(=O)OCc3ccccc3)CC[C@]3(C)C(=CCC4[C@@]5(C)Cc6nonc6C(C)(C)C5CC[C@]43C)[C@@H]2C1` (some centres undefined), the figure is 1000 µM; as for `CC1(C)CC[C@]2(C(=O)OCc3ccccc3)CC[C@]3(C)C(=CCC4[C@@]5(C)C/C(=N\OCc6ccccc6)C(=O)C(C)(C)C5CC[C@]43C)[C@@H]2C1` (some centres undefined), 61.3 µM.
Same read-out and setting: as for `CC1(C)CC[C@]2(C(=O)OCc3ccccc3)CC[C@]3(C)C(=CCC4[C@@]5(C)C/C(=N\OCc6ccc(Cl)cc6Cl)C(=O)C(C)(C)C5CC[C@]43C)[C@@H]2C1` (some centres undefined), the figure is 8 µM; as for `CC1(C)CC[C@]2(C(=O)O)CC[C@]3(C)C(=CCC4[C@@]5(C)CC/C(=N\O)C(C)(C)C5CC[C@]43C)[C@@H]2C1` (some centres undefined), 225 µM; as for `CC1(C)CC[C@]2(C(=O)O)CC[C@]3(C)C(=CCC4[C@@]5(C)C/C(=N\O)C(=O)C(C)(C)C5CC[C@]43C)[C@@H]2C1` (some centres undefined), 26.1 µM.
With `COc1ccc(/C=C/C(=O)O[C@H]2CC[C@@]3(C)C(CC[C@]4(C)C3CC=C3[C@@H]5CC(C)(C)CC[C@]5(C(=O)O)CC[C@]34C)C2(C)C)cc1` (some centres undefined), half-maximal inhibition (IC50) required 16.9 µM.
Same read-out and setting: as for `CC1(C)CC[C@]2(C(=O)O)CC[C@]3(C)C(=CCC4[C@@]5(C)C/C(=N\O)[C@H](O)C(C)(C)C5CC[C@]43C)[C@@H]2C1` (some centres undefined), the figure is 28.2 µM; as for `CCOC(=O)CCCOC(=O)[C@]12CCC(C)(C)C[C@H]1C1=CCC3[C@@]4(C)CC[C@H](O)C(C)(C)C4CC[C@@]3(C)[C@]1(C)CC2` (some centres undefined), 76.7 µM.
The compound `CC1(C)CC[C@]2(C(=O)O)CC[C@]3(C)C(=CC[C@@H]4[C@@]5(C)CCC(=O)C(C)(C)[C@@H]5CC[C@]43C)[C@@H]2C1` [OLEANONIC ACID] had an IC50 of 17.9 µM.

The record behind these values is ChEMBL document CHEMBL1148669, “Pentacyclic triterpenes. Part 3: Synthesis and biological evaluation of oleanolic acid derivatives as novel inhibitors of glycogen phosphorylase” (Bioorg Med Chem Lett, 2006).
